Measurements as given in patent publication US20070219162A1, “Partially-fluorinated ethers, compositions and uses thereof, for long-term tamponade in the eye” (THE TRUSTEES OF COLUMBIA UNIVERSITY IN THE CITY OF NEW YORK, priority 2004, published 2007).

Legend:
[1] = Refractive index of tamponading agents; type: physicochemical; details: Table 1
[2] = Viscosity of tamponading agents; type: physicochemical
[3] = Boiling point of tamponading agents; details: Table 1
[4] = Specific gravity of tamponading agents; type: physicochemical
Source text: Soluble Mixtures of Partially Fluorinated Ethers. The presence of the hydrocarbon chain in the structure of formula (I) has a large effect on the solubility properties of the molecule. The partially fluorinated ethers of formula (I) are completely miscible with certain perfluorocarbons, such as perfluoro-n-octane (“PFnO”) (C8F18), perfluoroethylcyclohexane (C8F16), perfluorodecalin (C10F18), and perfluorophenanthrene (C14F24). The solubility of formula (I) liquids with perfluorocarbons enables the design of soluble mixtures that can be used as long-term postoperative tamponade agents that have a specific gravity less than 1.6 or 1.5 such that the probability of retinal damage due to weight is reduced. For example, the commonly used intraoperative perfluorocarbon, PFnO, has a specific gravity of about 1.7. Thus, in order to make a soluble mixture of PFnO and DFPE (which has a specific gravity of about 1.3) that has a specific gravity less than 1.6 or 1.5, then one can use a greater amount of DFPE to reduce the specific gravity of the soluble mixture. For example, a mixture comprising about 25% PFnO and about 75% DFPE has a specific gravity of 1.39 at body temperature (see Table 1). This general strategy of mixing lighter partially fluorinated ether liquids with perfluorocarbon liquids can be conducted with any of the formula (I) liquids and a perfluorocarbon liquid, as long as they are miscible. Further, one can also make soluble mixtures between different partially fluorinated ethers in order to obtain a liquid tamponade agent that has a preferred specific gravity.
Further, one can use the strategy of mixing partially fluorinated ether liquids of formula (I) with lighter tamponade liquids, such as silicone, in order to resolve buoyancy problems and to increase tamponade force. As described previously, because silicone liquids are lighter than water and are immiscible in water, silicone liquids form a globule that rises above aqueous solutions. To rectify this problem, partially fluorinated ether liquids can be mixed with silicone liquids and oils such that soluble mixture has a specific gravity greater than 1.0. In one embodiment, partially fluorinated ether and silicone solutions have a specific gravity between about 1.00 and about 1.06. For example, DFPE can be mixed with silicone oil (such as dimethyl siloxane) and be soluble in silicone oil up to about 20% DFPE (weight to weight (w/w)). Thus, the invention contemplates DFPE and silicone mixtures where DFPE comprises between about 10% and about 20% of the solution and where silicone comprises between about 90% and about 80% of the solution. In one embodiment, a soluble mixture comprises between about 15% and about 18% (w/w) DFPE and between about 85% and about 82% (w/w) silicone oil. In another embodiment, a soluble mixture of about 18% (w/w) DFPE and about 82% (w/w) silicone oil has a specific gravity of about 1.02 at 37° C. In another embodiment, a soluble mixture of about 20% (w/w) DFPE and about 80% (w/w) silicone oil has a specific gravity of about 1.02-1.03. Perfluorocarbon liquids cannot be easily mixed with silicone liquids because perfluorocarbon liquids, not having any hydrocarbons, are only soluble up to less than about 1000 ppm with silicone.

[5] = Tamponade force calculated from specific gravity difference to fluid vitreous; type: physicochemical; set-up: unit not given beside the values; details: difference in specific gravity to fluid vitreous (1.03) multiplied by volume of tamponade agent (5 mL)
[6] = Water insolubility (single drop in one liter of water); type: physicochemical; details: single drop (about 50 ppm) added to one liter of water
Experimental: (§1) DFPE liquid is stable. […] Further, a mixture of DFPE in silicone (20% DFPE (w/w) and 80% silicone (w/w)) is stable through daily temperature cycling (20-40° C.) through at least 18 months. Further with respect to water insolubility, a single drop of DFPE (about 50 ppm) added to one liter of water remains visible, unchanged and undissolved for long periods of time (at least greater than 8 months).

[7] = type: physicochemical
Source text: Soluble Mixtures of Partially Fluorinated Ethers. The presence of the hydrocarbon chain in the structure of formula (I) has a large effect on the solubility properties of the molecule. The partially fluorinated ethers of formula (I) are completely miscible with certain perfluorocarbons, such as perfluoro-n-octane (“PFnO”) (C8F18), perfluoroethylcyclohexane (C8F16), perfluorodecalin (C10F18), and perfluorophenanthrene (C14F24). The solubility of formula (I) liquids with perfluorocarbons enables the design of soluble mixtures that can be used as long-term postoperative tamponade agents that have a specific gravity less than 1.6 or 1.5 such that the probability of retinal damage due to weight is reduced. For example, the commonly used intraoperative perfluorocarbon, PFnO, has a specific gravity of about 1.7. Thus, in order to make a soluble mixture of PFnO and DFPE (which has a specific gravity of about 1.3) that has a specific gravity less than 1.6 or 1.5, then one can use a greater amount of DFPE to reduce the specific gravity of the soluble mixture. For example, a mixture comprising about 25% PFnO and about 75% DFPE has a specific gravity of 1.39 at body temperature (see Table 1). […]

eye [8] = experiment: Gas chromatography of DFPE recovered from the eye; type: in vivo; details: after one month of residence time in the eye
[9] = type: physicochemical; remark: listed apart in the source
Experimental: as §1

eye [10] = details: in vivo
Source text: FIG. 4 and FIG. 5 show results indicating the long term biocompatibility of the eye to decafluoro-di-n-pentyl ether. […] Thus, the above characteristics, combined with the specific-gravity characteristics of the partially fluorinated ethers of formula (I), allow for their long-term use in the eye without damage, and with improved efficacy, convenience and biocompatibility. […] The invention contemplates the use of liquid tamponade agents comprising partially fluorinated ethers according to formula (I) for postoperative periods such as: hours, days, weeks, 1 month, 2 months, 3 months, greater than 3 months, greater than 6 months, up to 1 year, up to 2 years or more. Period greater than 1 year are not generally required for tamponade.

[11] = approximate, no temperature stated

| time a single drop remains visible, unchanged and undissolved in water [6] | solubility in silicone oil [7] | changes in composition of DFPE recovered from the eye (eye [8]) | stability to sunlight exposure [9] | stable over time ([9]; ambient temperature) | stable when exposed to heat ([9]; heat exposure) | amplitudes of electroretinographic responses (eye [10]) | implicit times of electroretinographic responses (eye [10]) | Specific Gravity ([4]; at body temperature) | SMILES | Refractive Index [1] | Viscosity (centistrokes at 25° C.) [2] [centistrokes] | Boiling Point [3] [°C] | Specific Gravity ([4]; Table 1) | Tamponade Force [5] | Specific Gravity [4, 11] |
| --- | --- | --- | --- | --- | --- | --- | --- | --- | --- | --- | --- | --- | --- | --- | --- |
|  |  |  |  |  |  |  |  |  | Fc1c(F)c(F)c2c(c1F)c(F)c(F)c1c(F)c(F)c(F)c(F)c12 [Perfluorophenanthrene, perfluorophenanthrene] | 1.28 | 8.03 | 215 | 2.03 | 5.0 |  |
|  |  |  |  |  |  |  |  |  | FC1(F)C(F)(F)C(F)(F)C2(F)C(F)(F)C(F)(F)C(F)(F)C(F)(F)C2(F)C1(F)F (stereo not shown) [Perfluorodecalin, perfluorodecalin] | 1.31 | 2.7 | 177 | 1.94 | 4.55 |  |
|  |  |  |  |  |  |  |  |  | FC(F)(F)C(F)(F)C(F)(F)C(F)(F)C(F)(F)C(F)(F)C(F)(F)C(F)(F)F [PFnO, perfluoro-n-octane] | 1.27 | 0.8 | 105 | 1.76 | 3.65 | about 1.7 |
| greater than 8 months | up to 20 % (w/w) | less than 0.05% | stable to sunlight exposure | at least 2 years | up to 95 °C | does not exhibit any negative effects | does not exhibit any negative effects | 1.31 | FC(F)(F)C(F)(F)CCCOCCCC(F)(F)C(F)(F)F [DFPE, decafluoro-di-n-pentyl ether] |  |  |  | 1.31 | 1.4 | about 1.3 |
